Reference: US9365830B2, “Agents and methods for inhibiting human pluripotent stem cell growth” (VIACYTE, INC., priority 2010, dated 2016)
Where a name gives a salt, the structure may show the parent alone. Read-outs that look alike come from different tables or passages of the source.

Experiments:
Type in all cases: cell-based, human
[1] = test system: NPCs; assay: Secondary screen, lowest effective dose on NPCs; conditions: lowest concentration that elicited cytotoxicity, range 0.1 to 50 μM, read-out: ED NPC (lowest effective dose)
Description: In addition, the complete LOPAC1280™ collection was also screened for effects on neural progenitor cells (NPCs) that were derived from the hESCs. Neural progenitors were plated in serum-free MedII conditioned medium at 6×10^4 cells/well and fed daily. Two days after plating, 10 μM of each compound was added and the cells were cultured for an additional 2 days. […] Reduced crystal violet staining was indicative of lower proportions of NPCs. See circled wells in FIG. 7B. The left and right columns of the LOPAC1280™ plates from which the compounds were dispensed were empty and served as untreated controls. […] See Table 6 below listing the name and class of activity of each candidate compound identified in this screen (except chelerythrine chloride, which is listed in Table 5). ChCl was not included in the subsequent round of screening. Therefore only 40 compounds were tested further.
(§1) Using a range of different concentrations from 0.1 to 50 μM, the forty compounds in Table 6 were re-screened (secondary screen) using hESCS and NPCs. The effective dose (ED) was defined as the lowest concentration of a compound that elicited cytotoxicity during the secondary screen. […] The darker wells were indicative of the increased numbers or percentages of proliferating or growing pluripotent stem cells in the wells. In addition, these 40 compounds were screened on differentiating definitive endoderm (DE) cell cultures in 96-well plate impedance assays (described above) to determine which of these compounds were not cytotoxic to definitive endoderm cells at the lowest effective dose on either hESC or NPC. […] See “ACEA DE” column in Table 6.

[2] = test system: hESCs; assay: Secondary screen, lowest effective dose on hESCs; conditions: lowest concentration that elicited cytotoxicity, range 0.1 to 50 μM, read-out: ED hESC (lowest effective dose)
Description: To expand the number of potential candidate hESC cytotoxic and inhibitory compounds, the complete LOPAC1280™ collection (containing 1,280 compounds) was screened. In the primary screen, cytotoxicity was tested on undifferentiated hESCs (about 3×10^4 BG01 cells) in 16 standard 96-well trays, in DC-HAIF defined medium on growth factor-reduced MATRIGEL™ diluted 1:200, which were fed daily (FIG. 7A). 10 μM of each compound was added to the hESCs one day after plating, and the cells were cultured for an additional 2 days. Plates were then fixed and stained for alkaline phosphatase (AP) to identify relative decreases in proliferation or growth of hESCs (as reduced AP staining), indicative of lower proportions of hESCs. See the circled wells in FIG. 7A.
as §1

[3] = test system: differentiating definitive endoderm (DE) cell cultures; assay: 96-well plate impedance assay (ACEA) on differentiating definitive endoderm at lowest effective dose; set-up: key: Viable: Compounds that did not appear to be cytotoxic toward differentiating DE cultures were marked as “viable”, meaning that the compound did not affect the survival, growth, proliferation or differentiation of the differentiated cells; conditions: at the lowest effective dose on either hESC or NPC
Description: The impedance assay on the hESCs using the compounds in Table 4 above gave greater than twenty (20) hits. However, the ideal candidate compound of the present invention should not only be inhibitory or cytotoxic to human pluripotent stem cells, such as hESCs or hIPSCs, but should at the same time have no effect on cell viability of differentiated or differentiating cell populations including Stage 1, 2, 3, 4 and 5 type cells cultures (definitive endoderm, foregut endoderm, posterior foregut, pancreatic endoderm and endocrine cells, respectively). […] Approximately 3×10^4 hES cells were plated per well and grown for 24 hrs in DC-HAIF defined medium (i.e. StemPro® hESC SFM medium (Life Technologies, Carlsbad, Calif.). Stage 1 or definitive endoderm differentiation was then induced by changing the medium and culturing in RPMI, 100 ng/mL Activin A, and 10 ng/mL of FGF2. […] of GSK-3 beta Inhibitor 15 (Calbiochem #361558) as added to the culture for the first 24 hours of differentiation only. 10 μM of each of the candidate compounds were added about 48 hours or 2 days after differentiation was induced (see FIGS. 3 C & D, large arrowhead), and the cells were cultured for an additional 2 days.
as §1

Compound: CC[n+]1c(/C=C/C=C2/N(C)c3ccccc3C2(C)C)sc2ccccc21.[I-] [AC-93253 iodide]
- minimal effective concentration [1]: <0.1 µM
- minimal effective concentration [2]: 5 µM

Compound: CC1(C)CCC2=C(O1)c1ccccc1C(=O)C2=O [beta-Lapachone]
- minimal effective concentration ([1]; Homo sapiens, 48 h): 5 µM
- minimal effective concentration ([2]; Homo sapiens): 5 µM

Compound: Oc1cc(-c2ccccc2)nc2nc(Cl)ccc12 [7-Chloro-4-hydroxy-2-phenyl-1,8-naphthyridine]
- ACEA DE [3]: Viable
- minimal effective concentration ([1]; Homo sapiens, 48 h): 5 µM
- minimal effective concentration ([2]; Homo sapiens): 5 µM

Compound: Vinblastine sulfate salt
- minimal effective concentration [1]: <0.1 µM
- minimal effective concentration [2]: <0.1 µM

Compound: CC[N+](CC)(CC)CCOc1ccc(/C=C/c2ccccc2)cc1 [MG 624]
- ACEA DE [3]: Viable
- minimal effective concentration ([1]; Homo sapiens, 48 h): 5 µM
- minimal effective concentration ([2]; Homo sapiens): 0.1 µM

Compound: Cc1cc(N)c2ccccc2[n+]1CCCCCCCCCC[n+]1c(C)cc(N)c2ccccc21 [Dequalinium chloride hydrate]
- minimal effective concentration ([1]; Homo sapiens, 48 h): 5 µM
- minimal effective concentration ([2]; Homo sapiens): 5 µM

Compound: CNc1ccc2oc(C[C@H]3O[C@@]4(CC[C@H]3C)O[C@H]([C@H](C)C(=O)c3ccc[nH]3)[C@H](C)C[C@H]4C)nc2c1C(=O)O [Calcimycin]
- minimal effective concentration ([1]; Homo sapiens, 48 h): < 0.1 µM
- minimal effective concentration ([2]; Homo sapiens): 1 µM

Compound: Ic1ccccc1CNC1C2CCN(CC2)C1C(c1ccccc1)c1ccccc1.O=C(O)C(=O)O [L-703,606 oxalate]
- minimal effective concentration [1]: >50 µM
- minimal effective concentration [2]: 25 µM

Compound: Oc1cc2c(cc1O)CN(C(=S)NCCc1ccc(Cl)cc1)CCC2 [Capsazepine]
- ACEA DE [3]: Viable
- minimal effective concentration ([1]; Homo sapiens, 48 h): 25 µM
- minimal effective concentration ([2]; Homo sapiens): 5 µM

Compound: N=C(N)c1ccc(OCCCCCOc2ccc(C(=N)N)cc2)cc1 [Pentamidine isethionate]
- ACEA DE [3]: Viable
- minimal effective concentration ([1]; Homo sapiens, 48 h): 25 µM
- minimal effective concentration ([2]; Homo sapiens): 1 µM

Compound: COC(=O)C1=C(C)NC(C)=C(C(=O)OC(C)(C)CN(C)CCC(c2ccccc2)c2ccccc2)C1c1cccc([N+](=O)[O-])c1 (stereo not drawn) [Lercanidipine hydrochloride]
- minimal effective concentration ([1]; Homo sapiens, 48 h): 10 µM
- minimal effective concentration ([2]; Homo sapiens): 10 µM

Compound: C[C@@H]1O[C@@H](O[C@H]2C[C@@H](O)[C@]3(CO)[C@H]4[C@H](O)C[C@]5(C)[C@@H]([C@@H]6COC(=O)C6)CC[C@]5(O)[C@@H]4CC[C@]3(O)C2)[C@H](O)[C@H](O)[C@H]1O [Dihydroouabain]
- minimal effective concentration [1]: <0.1 µM
- minimal effective concentration [2]: 1 µM

Compound: CC[C@H]1CN2CCc3cc(OC)c(OC)cc3[C@@H]2C[C@@H]1C[C@H]1NCCc2cc(OC)c(OC)cc21 [Emetine dihydrochloride hydrate]
- minimal effective concentration ([1]; Homo sapiens, 48 h): 0.1 µM
- minimal effective concentration ([2]; Homo sapiens): < 0.1 µM

Compound: CCCCCCCC/C=C\CCCCCCCC(=O)NCCc1ccc(O)c(O)c1 [N-Oleoyldopamine]
- ACEA DE [3]: Viable
- minimal effective concentration ([1]; Homo sapiens, 48 h): 1 µM
- minimal effective concentration ([2]; Homo sapiens): 5 µM

Compound: Nc1ccc(CCN2CCN(c3cccc(C(F)(F)F)c3)CC2)cc1 [PAPP]
- minimal effective concentration [1]: >50 µM
- minimal effective concentration [2]: 25 µM

Compound: N [Ammonium]
- ACEA DE [3]: Viable
- minimal effective concentration [1]: >50 µM
- minimal effective concentration [2]: 10 µM

Compound: c1ccc2c(c1)[I+]c1ccccc1-2 [Diphenyleneiodonium chloride]
- minimal effective concentration ([1]; Homo sapiens, 48 h): < 0.1 µM
- minimal effective concentration ([2]; Homo sapiens): 0.1 µM

Compound: Clc1ccc(C(c2ccc(Cl)cc2)n2cc[n+](CC(OCc3ccc(Cl)cc3Cl)c3ccc(Cl)cc3Cl)c2)cc1 (stereo not drawn) [Calmidazolium chloride]
- ACEA DE [3]: Viable
- minimal effective concentration ([1]; Homo sapiens, 48 h): 5 µM
- minimal effective concentration ([2]; Homo sapiens): 5 µM

Compound: COCC(=O)O[C@]1(CCN(C)CCCc2nc3ccccc3[nH]2)CCc2cc(F)ccc2[C@@H]1C(C)C [Mibefradil dihydrochloride]
- minimal effective concentration ([1]; Homo sapiens, 48 h): 25 µM
- minimal effective concentration ([2]; Homo sapiens): 25 µM

Compound: COc1ccc2c(c1)CC[C@@H]1[C@@H]2CC[C@]2(C)[C@@H](NCCCCCCN3C(=O)CCC3=O)CC[C@@H]12 [U-73343]
- ACEA DE [3]: Viable
- minimal effective concentration [1]: 5 µM
- minimal effective concentration [2]: 10 µM

Compound: CC1=C(/C=C/C(C)=C/C=C/C(C)=C/C(=O)Nc2ccc(O)cc2)C(C)(C)CCC1 [Retinoic acid p-hydroxyanilide]
- ACEA DE [3]: Viable
- minimal effective concentration [1]: 5 µM
- minimal effective concentration [2]: 1 µM

Compound: O=c1[nH]c2ccccc2n1CCCN1CCC(n2c(=O)[nH]c3cc(Cl)ccc32)CC1 [Domperidone]
- ACEA DE [3]: Viable
- minimal effective concentration ([1]; Homo sapiens, 48 h): 0.1 µM
- minimal effective concentration ([2]; Homo sapiens): 25 µM

Compound: Oc1ccccc1O [Pyrocatechol]
- ACEA DE [3]: Viable
- minimal effective concentration ([1]; Homo sapiens, 48 h): 5 µM
- minimal effective concentration ([2]; Homo sapiens): 5 µM

Compound: C=CC1=C(C)c2cc3[nH]c(cc4nc(cc5[nH]c(cc1n2)c(C)c5CCC(=O)O)C(CCC(=O)O)=C4C)c(C)c3C=C [Protoporphyrin IX disodium]
- ACEA DE [3]: Viable
- minimal effective concentration ([1]; Homo sapiens, 48 h): > 50 µM
- minimal effective concentration ([2]; Homo sapiens): 10 µM

Compound: COc1cc(NS(C)(=O)=O)ccc1Nc1c2ccccc2nc2ccccc12 [Amsacrine hydrochloride]
- minimal effective concentration ([1]; Homo sapiens, 48 h): 0.1 µM
- minimal effective concentration ([2]; Homo sapiens): 1 µM

Compound: COc1cc([C@@H]2c3cc4c(cc3[C@H](O)[C@H]3COC(=O)[C@H]23)OCO4)cc(OC)c1OC [Podophyllotoxin]
- ACEA DE [3]: Viable
- minimal effective concentration ([2]; Homo sapiens): < 0.1 µM

Compound: O=C(/C=C/c1ccc(O)c(O)c1)OCCc1ccccc1 [Caffeic acid phenethyl ester]
- ACEA DE [3]: Viable
- minimal effective concentration ([1]; Homo sapiens, 48 h): 5 µM
- minimal effective concentration ([2]; Homo sapiens): < 0.1 µM

Compound: CC(C)(C)c1ccc(C(O)CCCN2CCC(C(O)(c3ccccc3)c3ccccc3)CC2)cc1 (stereo not drawn) [Terfenadine]
- minimal effective concentration ([1]; Homo sapiens, 48 h): 10 µM
- minimal effective concentration ([2]; Homo sapiens): 25 µM

Compound: C[C@H]1CCC/C=C/[C@@H]2C[C@H](O)C[C@H]2[C@H](O)/C=C/C(=O)O1 [Brefeldin A from Penicillium]
- minimal effective concentration [1]: <0.1 µM
- minimal effective concentration [2]: <0.1 µM

Compound: Cc1nc(-c2ccc(-c3ccc(C(=O)N4CCc5cc6c(cc54)C4(CCN(C)CC4)CO6)cc3)c(C)c2)no1 [SB 224289 hydrochloride]
- minimal effective concentration ([1]; Homo sapiens, 48 h): 50 µM
- minimal effective concentration ([2]; Homo sapiens): 25 µM

Compound: CCN(CC)CCCC(C)Nc1c2ccc(Cl)cc2nc2ccc(OC)cc12 (stereo not drawn) [Quinacrine dihydrochloride]
- ACEA DE [3]: Viable
- minimal effective concentration ([1]; Homo sapiens, 48 h): 25 µM
- minimal effective concentration ([2]; Homo sapiens): 10 µM

Compound: CNC(=O)[C@H]1O[C@@H](n2cnc3c(NCc4cccc(I)c4)ncnc32)[C@H](O)[C@@H]1O [IB-MECA]
- minimal effective concentration [1]: >50 µM
- minimal effective concentration [2]: 50 µM

Compound: COc1cc2c(cc1O)CC[C@@H]1[C@@H]2CC[C@]2(C)[C@@H](O)CC[C@@H]12 [2-methoxyestradiol]
- minimal effective concentration [1]: 1 µM
- minimal effective concentration [2]: 10 µM

Compound: CC(C)[C@H]1c2ccc(F)cc2CC[C@@]1(CCN(C)CCCc1nc2ccccc2[nH]1)OC(=O)C1CC1 [NNC 55-0396]
- minimal effective concentration [1]: 5 µM
- minimal effective concentration [2]: 25 µM

Compound: C[C@@H]1O[C@@H](O[C@H]2C[C@@H](O)[C@]3(CO)[C@H]4[C@H](O)C[C@]5(C)[C@@H](C6=CC(=O)OC6)CC[C@]5(O)[C@@H]4CC[C@]3(O)C2)[C@H](O)[C@H](O)[C@H]1O [Ouabain]
- minimal effective concentration ([1]; Homo sapiens, 48 h): < 0.1 µM
- minimal effective concentration ([2]; Homo sapiens): < 0.1 µM

Compound: COc1ccc(CCCOC(Cn2ccnc2)c2ccc(OC)cc2)cc1 (stereo not drawn) [SKF 96365]
- ACEA DE [3]: Viable
- minimal effective concentration ([1]; Homo sapiens, 48 h): 5 µM
- minimal effective concentration ([2]; Homo sapiens): 25 µM
